# Assay results reported in patent US20060264460A1 (Wyeth, priority 2005, published 2006).
# Biological target: T1, human Cot/Tpl2 kinase (Homo sapiens, UniProt P41279)
# T1 construct: human Cot/Tpl2 kinase construct encoding residues 30-398; 6His (N); made in house; host or cells: Sf9 insect cells, baculovirus system (BD Biosciences)
# Assay: Tpl2/Cot kinase assay: GST-MEK1 phosphorylation detected by ELISA (DELFIA Eu)
# Format: biochemical
# Details: Tpl2/Cot kinase, GST-MEK1 substrate, 50 uM ATP
# Method in brief: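 His-tagged human Tpl2 from Sf9 cells, Ni-affinity and size-exclusion purified (monomer). 0.4 nM Tpl2 with 35 nM GST-MEK1, 50 uM ATP, MOPS pH 7.2, 1% DMSO, 1 h at 30° C; EDTA stop. MEK1 Ser217/221 phosphorylation detected by anti-phospho-MEK1 and Eu-labelled secondary ELISA; IC50 fitted.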
# T1 sequence (P41279 30-398): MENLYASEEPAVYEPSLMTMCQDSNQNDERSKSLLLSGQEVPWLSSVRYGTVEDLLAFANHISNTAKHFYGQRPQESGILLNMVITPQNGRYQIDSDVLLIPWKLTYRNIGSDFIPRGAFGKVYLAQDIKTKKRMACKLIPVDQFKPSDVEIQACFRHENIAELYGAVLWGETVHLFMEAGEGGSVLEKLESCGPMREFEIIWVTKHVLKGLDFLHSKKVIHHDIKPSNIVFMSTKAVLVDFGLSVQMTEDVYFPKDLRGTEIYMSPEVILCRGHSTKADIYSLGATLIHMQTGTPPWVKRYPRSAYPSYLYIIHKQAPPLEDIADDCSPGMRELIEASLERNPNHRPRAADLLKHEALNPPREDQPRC
row,IC50,SMILES
1,0.8 nM,N#Cc1cnc2c(Cl)cc(NCc3cn(CC(=O)NCc4cccnc4)nn3)cc2c1Nc1ccc(F)c(Cl)c1 [Example 819]
2,14 nM,N#Cc1cnc2c(Cl)cc(NCc3cn(CC(=O)NCCN4CCOCC4)nn3)cc2c1Nc1ccc(F)c(Cl)c1 [Example 820]
3,2.7 nM,N#Cc1cnc2c(Cl)cc(NCc3cn(CC(=O)Nc4cccnc4)nn3)cc2c1Nc1ccc(F)c(Cl)c1 [Example 821]
4,13 nM,CN1CCN(C(=O)Cn2cc(CNc3cc(Cl)c4ncc(C#N)c(Nc5ccc(F)c(Cl)c5)c4c3)nn2)CC1 [Example 822]
5,860 nM,CN1CCCC1CCn1cc(CN(Cc2cn(CCC3CCCN3C)nn2)c2cc(Br)c3ncc(C#N)c(Nc4ccc(F)c(Cl)c4)c3c2)nn1 (stereo not shown) [Example 823]
6,1240 nM,N#Cc1cnc2c(Cl)cc(NCC3CCNCC3)cc2c1Nc1ccc(F)c(Cl)c1 [Example 824]
7,37 nM,CN1CCC(Cn2cc(CNc3cc(Cl)c4ncc(C#N)c(Nc5ccc(F)c(Cl)c5)c4c3)nn2)CC1 [Example 825]
8,35 nM,CCN1CCC(Cn2cc(CNc3cc(Cl)c4ncc(C#N)c(Nc5ccc(F)c(Cl)c5)c4c3)nn2)CC1 [Example 826]
9,11 nM,CC(C)N1CCC(Cn2cc(CNc3cc(Cl)c4ncc(C#N)c(Nc5ccc(F)c(Cl)c5)c4c3)nn2)CC1 [Example 827]
10,2.6 nM,CN(C)C(=O)N1CCC(Cn2cc(CNc3cc(Cl)c4ncc(C#N)c(Nc5ccc(F)c(Cl)c5)c4c3)nn2)CC1 [Example 828]
11,19 nM,CN(C)C(=O)N1CCC(CCn2cc(CNc3cc(Cl)c4ncc(C#N)c(Nc5ccc(F)c(Cl)c5)c4c3)nn2)CC1 [Example 830]
12,9.3 nM,CCNC(=O)N1CCC(CCn2cc(CNc3cc(Cl)c4ncc(C#N)c(Nc5ccc(F)c(Cl)c5)c4c3)nn2)CC1 [Example 831]
13,1.2 nM,CC(=O)N1CCC(CCn2cc(CNc3cc(Cl)c4ncc(C#N)c(Nc5ccc(F)c(Cl)c5)c4c3)nn2)CC1 [Example 832]
14,9 nM,N#Cc1cnc2c(Br)cc(NCc3cn(CCOC(N)=O)nn3)cc2c1Nc1ccc(F)c(Cl)c1 [Example 833]
15,14 nM,CN(C)C(=O)Cn1cc(CNc2cc(Br)c3ncc(C#N)c(Nc4ccc(F)c(Cl)c4)c3c2)nn1 [Example 834]
16,9.1 nM,CCN(Cc1cn(CC(=O)N(C)C)nn1)c1cc(Br)c2ncc(C#N)c(Nc3ccc(F)c(Cl)c3)c2c1 [Example 835]
17,11 nM,Cc1cc(Cn2cc(CNc3cc(Cl)c4ncc(C#N)c(Nc5ccc(F)c(Cl)c5)c4c3)nn2)ccn1 [Example 837]
18,10 nM,Cc1ncccc1Cn1cc(CNc2cc(Cl)c3ncc(C#N)c(Nc4ccc(F)c(Cl)c4)c3c2)nn1 [Example 840]
19,29 nM,N#Cc1cnc2c(Cl)cc(NCc3cn(CCCN4CCC(F)(F)CC4)nn3)cc2c1Nc1ccc(F)c(Cl)c1 [Example 841]
20,0.9 nM,Cc1c(Cn2cc(CNc3cc(Cl)c4ncc(C#N)c(Nc5ccc(F)c(Cl)c5)c4c3)nn2)ccc[n+]1[O-] [Example 842]
21,58 nM,CC(=O)N(CCNc1cc(Cl)c2ncc(C#N)c(Nc3ccc(F)c(Cl)c3)c2c1)Cc1cccnc1 [Example 843]
22,60 nM,CC(=O)N(CCNc1cc(Cl)c2ncc(C#N)c(Nc3ccc(F)c(Cl)c3)c2c1)Cc1ccncc1 [Example 844]
23,22 nM,N#Cc1cnc2c(Cl)cc(NCc3ccncc3)cc2c1Nc1ccc(F)c(Cl)c1 [Example 845]

row,IC50,SMILES
1,170 nM,CC(=O)N(CCNc1cc(Cl)c2ncc(C#N)c(Nc3ccc(F)c(Cl)c3)c2c1)Cc1ccccn1 [Example 846]
2,170 nM,CC(C)Cn1cc(CNc2cc(Cl)c3ncc(C#N)c(Nc4ccc(F)c(Cl)c4)c3c2)nn1 [Example 847]
3,380 nM,CCN(CC1CCN(C(=O)c2cccnc2)CC1)c1cc(Cl)c2ncc(C#N)c(Nc3ccc(F)c(Cl)c3)c2c1 [Example 848]
4,1910 nM,CN1CCC(CNc2cc(Cl)c3ncc(C#N)c(Nc4ccc(F)c(Cl)c4)c3c2)CC1 [Example 849]
5,130 nM,N#Cc1cnc2c(Cl)cc(NCC3CCN(C(=O)c4cccnc4)CC3)cc2c1Nc1ccc(F)c(Cl)c1 [Example 850]
6,150 nM,CN(C)C(=O)Cn1cc(CN(C)c2cc(Cl)c3ncc(C#N)c(Nc4ccc(F)c(Cl)c4)c3c2)nn1 [Example 851]
7,120 nM,N#Cc1cnc2c(Cl)cc(NCc3cn(CCCN4C(=O)c5ccccc5C4=O)nn3)cc2c1Nc1ccc(F)c(Cl)c1 [Example 852]
8,880 nM,CS(=O)(=O)NCCNc1cc(Cl)c2ncc(C#N)c(Nc3ccc(F)c(Cl)c3)c2c1 [Example 853]
9,1960 nM,N#Cc1cnc2c(Cl)cc(NCCNS(=O)(=O)c3ccccc3)cc2c1Nc1ccc(F)c(Cl)c1 [Example 854]
10,> 3000 nM,N#Cc1cnc2c(Cl)cc(NCCNS(=O)(=O)c3cccnc3)cc2c1Nc1ccc(F)c(Cl)c1 [Example 855]
11,820 nM,N#Cc1cnc2c(Cl)cc(NCCNS(=O)(=O)c3ccccn3)cc2c1Nc1ccc(F)c(Cl)c1 [Example 856]
12,670 nM,N#Cc1cnc2c(Cl)cc(NCCNS(=O)(=O)Cc3ccccn3)cc2c1Nc1ccc(F)c(Cl)c1 [Example 857]
13,790 nM,N#Cc1ccc(S(=O)(=O)NCCNc2cc(Cl)c3ncc(C#N)c(Nc4ccc(F)c(Cl)c4)c3c2)cc1 [Example 858]
14,> 3000 nM,N#Cc1cnc2c(Cl)cc(NCCNC(=O)c3ccccn3)cc2c1Nc1ccc(F)c(Cl)c1 [Example 859]
15,> 3000 nM,N#Cc1cnc2c(Cl)cc(NCCNC(=O)c3cccnc3)cc2c1Nc1ccc(F)c(Cl)c1 [Example 860]
16,> 3000 nM,N#Cc1cnc2c(Cl)cc(NCCNC(=O)Cc3ccccn3)cc2c1Nc1ccc(F)c(Cl)c1 [Example 861]
17,> 3000 nM,N#Cc1cnc2c(Cl)cc(NCCNC(=O)Cc3cccnc3)cc2c1Nc1ccc(F)c(Cl)c1 [Example 862]
18,1040 nM,N#Cc1cnc2c(Cl)cc(NCCNC(=O)Cc3ccncc3)cc2c1Nc1ccc(F)c(Cl)c1 [Example 863]
19,650 nM,N#Cc1cnc2c(Cl)cc(NCCNC(=O)c3cncnc3)cc2c1Nc1ccc(F)c(Cl)c1 [Example 864]
20,380 nM,CC(=O)N1CCC(CN(C(C)=O)c2cc(Cl)c3ncc(C#N)c(Nc4ccc(F)c(Cl)c4)c3c2)CC1 [Example 865]
21,260 nM,CC(=O)N1CCC(CNc2cc(Cl)c3ncc(C#N)c(Nc4ccc(F)c(Cl)c4)c3c2)CC1 [Example 866]
22,1190 nM,CCN1CCCC(Nc2cc(Cl)c3ncc(C#N)c(Nc4ccc(F)c(Cl)c4)c3c2)C1 (stereo not shown) [Example 868]
23,820 nM,N#Cc1cnc2c(Cl)cc(NC3CCN(Cc4cccnc4)CC3)cc2c1Nc1ccc(F)c(Cl)c1 [Example 869]

row,IC50,SMILES
1,1970 nM,CCN1CCCCC1CNc1cc(Cl)c2ncc(C#N)c(Nc3ccc(F)c(Cl)c3)c2c1 (stereo not shown) [Example 870]
2,150 nM,CC(=O)N1CCC(Nc2cc(Cl)c3ncc(C#N)c(Nc4ccc(F)c(Cl)c4)c3c2)C1 (stereo not shown) [Example 871]
3,96 nM,CC(=O)N1CCCC(Nc2cc(Cl)c3ncc(C#N)c(Nc4ccc(F)c(Cl)c4)c3c2)C1 (stereo not shown) [Example 872]
4,660 nM,CC(=O)N1CCC(Nc2cc(Cl)c3ncc(C#N)c(Nc4ccc(F)c(Cl)c4)c3c2)CC1 [Example 873]
5,610 nM,CC(=O)N1CCCC(CNc2cc(Cl)c3ncc(C#N)c(Nc4ccc(F)c(Cl)c4)c3c2)C1 (stereo not shown) [Example 874]
6,620 nM,CC(=O)N1CCCCC1CNc1cc(Cl)c2ncc(C#N)c(Nc3ccc(F)c(Cl)c3)c2c1 (stereo not shown) [Example 875]
7,1.3 nM,N#Cc1cnc2c(Cl)cc(NCc3cn(CC(=O)NC4CC4)nn3)cc2c1Nc1ccc(F)c(Cl)c1 [Example 876]
8,110 nM,CC(C)N1CCCC1Cn1cc(CNc2cc(Br)c3ncc(C#N)c(Nc4ccc(F)c(Cl)c4)c3c2)nn1 (stereo not shown) [Example 878]
9,1.1 nM,N#Cc1cnc2c(Cl)cc(NCc3cn(Cc4cncnc4)nn3)cc2c1Nc1ccc(F)c(Cl)c1 [Example 879]
10,2.5 nM,N#Cc1cnc2c(Br)cc(NCc3cn(Cc4cncnc4)nn3)cc2c1Nc1ccc(F)c(Cl)c1 [Example 880]
11,270 nM,N#Cc1cnc2c(Cl)cc(NCc3cn(Cc4cccc(C(F)(F)F)n4)nn3)cc2c1Nc1ccc(F)c(Cl)c1 [Example 882]
12,80 nM,N#Cc1cnc2c(Cl)cc(NCc3cn(Cc4ccnc(C(F)(F)F)c4)nn3)cc2c1Nc1ccc(F)c(Cl)c1 [Example 883]
13,660 nM,CCOC(=O)C1CC1CNc1cc(Cl)c2ncc(C#N)c(Nc3ccc(F)c(Cl)c3)c2c1 (stereo not shown) [Example 884]
14,390 nM,N#Cc1cnc2c(Cl)cc(NCC(=O)N3CCCCCC3)cc2c1Nc1ccc(F)c(Cl)c1 [Example 885]
15,220 nM,N#Cc1cnc2c(Cl)cc(NCC3CC3C(=O)O)cc2c1Nc1ccc(F)c(Cl)c1 (stereo not shown) [Example 886]
16,160 nM,CC(C)(C)OC(=O)N1CCC[C@@H]1Cn1cc(CNc2cc(Cl)c3ncc(C#N)c(Nc4ccc(F)c(Cl)c4)c3c2)nn1 [Example 887]
17,200 nM,CC(C)(C)OC(=O)N1CCC[C@H]1Cn1cc(CNc2cc(Cl)c3ncc(C#N)c(Nc4ccc(F)c(Cl)c4)c3c2)nn1 [Example 888]
18,8.4 nM,N#Cc1cnc2c(Cl)cc(NCc3cn(C[C@H]4CCCN4)nn3)cc2c1Nc1ccc(F)c(Cl)c1 [Example 889]
19,7.6 nM,N#Cc1cnc2c(Cl)cc(NCc3cn(C[C@@H]4CCCN4)nn3)cc2c1Nc1ccc(F)c(Cl)c1 [Example 890]
20,33 nM,CN1CCC[C@@H]1Cn1cc(CNc2cc(Cl)c3ncc(C#N)c(Nc4ccc(F)c(Cl)c4)c3c2)nn1 [Example 891]
21,30 nM,CCN1CCC[C@@H]1Cn1cc(CNc2cc(Cl)c3ncc(C#N)c(Nc4ccc(F)c(Cl)c4)c3c2)nn1 [Example 892]
22,46 nM,CC(C)N1CCC[C@@H]1Cn1cc(CNc2cc(Cl)c3ncc(C#N)c(Nc4ccc(F)c(Cl)c4)c3c2)nn1 [Example 893]
23,1.8 nM,CN1CCC[C@H]1Cn1cc(CNc2cc(Cl)c3ncc(C#N)c(Nc4ccc(F)c(Cl)c4)c3c2)nn1 [Example 894]

row,SMILES,IC50
1,N#Cc1cnc2c(Br)cc(NCc3cn(C4CN5CCC4CC5)nn3)cc2c1Nc1ccc(F)c(Cl)c1 (stereo not shown) [Example 838],10 nM
